According to EPA's ToxValDB 9.5 (doi:10.2903/j.efsa.2008.148r):
Values after ≈ are worked out from the molar mass of the structure shown.

Key:
Poecilus cupreus = test: LR50; higher = less toxic; conditions: not reported; mortality
Oryctolagus sp. = conditions: reproduction developmental; body weight
Avena sativa = conditions: acute; duration: 14 days; growth
Coturnix japonica = conditions: acute; oral; mortality
Folsomia candida = conditions: chronic/long-term; duration: 28 days; reproduction
Lepidium sativum = conditions: acute; duration: 14 days; growth
Macromiidae = conditions: acute; duration: 72 hours; biomass
Mus musculus = conditions: acute; oral; mortality
Apis mellifera = conditions: acute; duration: 48 hours; oral; unspecified; mortality
Daphnia magna = conditions: chronic/long-term; duration: 21 days; reproduction
Canidae = conditions: subchronic; duration: 90 days; oral; Dog Other; clinical signs

Work on `O=[N+]([O-])/N=C1\NCCN1Cc1ccc(Cl)nc1` [Imidacloprid] yielded an LR50 (Poecilus cupreus) of 0.136 mg/kg, an NOAEL (Oryctolagus sp.) of 8 mg/kg-day and an NOEC (Avena sativa) of at least 100 mg/kg. It also gave an LC50 (Oncorhynchus mykiss; acute, duration: 96 hours, mortality) of 211 mg/L (≈ 825 µM), an NOEC (Oncorhynchus mykiss; chronic/long-term, duration: 91 days, time to swim up) of 9.02 mg/L and an LD50 (Coturnix japonica) of 31 mg/kg-day. It also gave an NOAEL (Rattus norvegicus; chronic) of 17 mg/kg-day, an NOAEL (Rattus norvegicus; chronic, duration: 2 years, histopathology: nonneoplastic) of 5.7 mg/kg-day and an NOAEL (Rattus norvegicus; subchronic, duration: 90 days, oral, histopathology: nonneoplastic) of 9.3 mg/kg-day. The LC50 (Tagia sp.; acute, duration: 14 days, mortality) was 10.7 mg/kg, the NOEC (Tagia sp.; chronic/long-term, duration: 56 days, reproduction) was over 0.178 mg/kg and the NOEC (Folsomia candida) was 1.25 mg/kg. For the same compound, the NOEC (Lepidium sativum) was 10 mg/kg, the NOEC (Macromiidae) was 10 mg/L and the NOAEL (Colinus virginianus; reproduction developmental) was 9.3 mg/kg-day. The NOEL (Colinus virginianus; short-term, oral, diet) was 29.4 mg/kg-day, the LD50 (Mus musculus) was 131 mg/kg-day and the LD50 (Apis mellifera) was 0.0037 µg/piece. It also gave an NOEC (Daphnia magna) of 1.8 mg/L and an NOAEL (Canidae) of 7.8 mg/kg-day.
